Test results taken from patent publication US3985798A, “11α-HOMO-PROSTANOIC ACIDS AND ESTERS” (American Cyanamid Company, priority 1975, dated 1976).

Tested on: basal gastric acid secretion
Test: Inhibition of Total Acid Output in the Acute Gastric Fistula Rat (inhibition of basal gastric acid secretion)
Format: in vivo, Female Sprague-Dawley rats
Conditions: 10 mg./kg. intraduodenal, vs concurrent vehicle control; for Total Acid Output % Inhibition, 60"(A): sample A, 60 minutes; for Total Acid Output % Inhibition, 120"(B): sample B, 120 minutes
Excerpt: The natural prostaglandins have a broad spectrum of biological properties. Because of these diverse effects their potential therapeutic use is limited. […] On the other hand, they do inhibit gastic acid secretion and accordingly are potentially useful for the treatment of peptic ulcers, gastric hyperacidity and gastric erosion. Inhibition of basal gastric acid secretion can be determined by the following procedure. Female Sprague-Dawley rats weighing 140-160 grams are fasted in individual cages for 18-24 hours. The rats are then lightly anesthetized with ether and their front teeth extracted to avoid destruction of the plastic cannula. A midline incision is then made and the stomach and duodenum exposed. A flanged polyvinyl tube is inserted into the fundic portion of the stomach and secured with a purse string suture line using 4-0 Mersilene. The rat is then dosed by injection of the compound into the duodenum (1.0 ml. per 100 gram body weight). After dosing, the abdominal wall and skin are closed using metal wound clips. The rat is replaced in a cage containing a longitudinal slit to allow the polyvinyl tube to hang freely. An 8 ml. plastic collecting tube is attached to the flanged cannula and hangs freely below the cage. The first 30 minute sample is discarded designating this time as zero. The collecting tube is attached again and samples removed at the end of 60 and 120 minutes. These samples are referred to as A and B in the table. The hourly samples are then transferred to a 15 ml. centrifuge and centrifuged for 5-10 minutes. Total and sediment volume are then recorded with the supernatant volume being used as volume of secretion. A 1 ml. or less aliquot is then removed and placed in a 50 ml. beaker containing 10 ml. of distilled water. This sample is then titrated using 0.01N NaOH to pH 7.0 using a Beckman zeromatic pH meter, Volume, titratable acidity (meq/L), and total acid output (ueg/hour) are recorded. Percent inhibition is determined by comparison with the appropriate control. Groups of three rats were used for preliminary testing, and groups of six rats were used for dose-response evaluations. All compounds are administered in a vehicle consisting of 0.5% methocel, 0.4% Tween 80, and saline at a constant volume of 1 ml./100 gram rat. Samples are dispersed by sonification. Percent inhibition is calculated on basis of concurrent vehicle control.
In Table A which follows is given the effect on total acid output after 120 minutes of a 10 mg./kg. intraduodenal dose of representative compounds of this invention.

Compound | Total Acid Output % Inhibition, 60"(A) | Total Acid Output % Inhibition, 120"(B)
CCCCC[C@@H](O)/C=C/[C@H]1CC=CC(=O)[C@@H]1CCCCCCC(=O)O (relative stereo) [9-oxo-15-epi-hydroxy-11a-homo-10,13-trans-prostadienoic acid] | 43% | 47%
CCCCC[C@H](O)/C=C/[C@H]1CC=CC(=O)[C@@H]1CCCCCCC(=O)O (relative stereo) [dl-11a-homoprostaglandin A1, 9-oxo-15-hydroxy-11a-homo-10,13-trans-prostadienoic acid] | 35% | 33%
CCCCC[C@H](O)/C=C/[C@H]1C[C@H](O)CC(=O)[C@@H]1CCCCCCC(=O)O (relative stereo) [dl-11a-homoprostaglandin E1, 9-oxo-11α,15-dihydroxy-11a-homo-13-trans-prostenoic acid] | 69% | 74%
